This passage reports inhibition, Activity and Km results from ChEMBL document CHEMBL2074554, “Expression of the apical conjugate export pump, Mrp2, in the polarized hepatoma cell line, WIF-B” (Hepatology, 1998).

The target in data set [1] is ABCC2 (MRP2; ATP-binding cassette sub-family C member 2) (Rattus norvegicus, UniProt Q63120). Nature of the data set: TP_TRANSPORTER: inhibition of Fluo-3 secretion into apical vacuoles (Fluo-3: 1 uM, PSC 833: 50 uM) in WIF-B cells. In kind it is functional, cell-based, WIF-B cell. The settings on record: probe Fluo-3 (1 uM).
Data set [2] has as its target ATP-binding cassette sub-family C member 2 (Rattus norvegicus, UniProt Q63120). Nature of the data set: TP_TRANSPORTER: inhibition of Fluo-3 uptake (Fluo-3: 4.4 uM, PSC 833: 10 uM) in bile canalicular membrane vesicles from Wistar rat. Type of data set: functional, cell membranes, Bile canalicular membrane vesicle.
Substrate in data set [3]: Cc1ccc(N(CC(=O)O)CC(=O)O)c(OCCOc2cc(-c3c4cc(Cl)c(=O)cc-4oc4cc(O)c(Cl)cc34)ccc2N(CC(=O)O)CC(=O)O)c1
Nature of the data set: TP_TRANSPORTER: uptake in bile canalicular membrane vesicles from Wistar/TR- rat. Type of data set: functional, cell membranes, Bile canalicular membrane vesicle.

One may read the inhibition as how much of the control response was suppressed. Low values mean little suppression, high ones strong suppression. A word on the Km: it is the substrate concentration at which the rate is half of its maximum.

As to `C/C=C/C[C@@H](C)C(=O)[C@H]1C(=O)N[C@@H](C(C)C)C(=O)N(C)CC(=O)N(C)[C@@H](CC(C)C)C(=O)N[C@@H](C(C)C)C(=O)N(C)[C@@H](CC(C)C)C(=O)N[C@@H](C)C(=O)N[C@H](C)C(=O)N(C)[C@@H](CC(C)C)C(=O)N(C)[C@@H](CC(C)C)C(=O)N(C)[C@@H](C(C)C)C(=O)N1C` [VALSPODAR], 50 µM produced 50% inhibition in data set [1]. The Activity entry in data set [2] was “is not an inhibitor [-]”.

B1: ATP-binding cassette sub-family C member 2 (Rattus norvegicus) (protein)
chain: MDKFCNSTFWDLSLLESPEADLPLCFEQTVLVWIPLGFLWLLAPWQLYSVYRSRTKRSSITKFYLAKQVFVVFLLILAAIDLSLALTEDTGQATVPPVRYTNPILYLCTWLLVLAVQHSRQWCVRKNSWFLSLFWILSVLCGVFQFQTLIRALLKDSKSNMAYSYLFFVSYGFQIVLLILTAFSGPSDSTQTPSVTASFLSSITFSWYDRTVLKGYKHPLTLEDVWDIDEGFKTRSVTSKFEAAMTKDLQKARQAFQRRLQKSQRKPEATLHGLNKKQSQSQDVLVLEEAKKKSEKTTKDYPKSWLIKSLFKTFHVVILKSFILKLIHDLLVFLNPQLLKLLIGFVKSSNSYVWFGYICAILMFAVTLIQSFCLQSYFQHCFVLGMCVRTTVMSSIYKKALTLSNLARKQYTIGETVNLMSVDSQKLMDATNYMQLVWSSVIQITLSIFFLWRELGPSILAGVGVMVLLIPVNGVLATKIRNIQVQNMKNKDKRLKIMNEILSGIKILKYFAWEPSFQEQVQGIRKKELKNLLRFGQLQSLLIFILQITPILVSVVTFSVYVLVDSANVLNAEKAFTSITLFNILRFPLSMLPMVTSSILQASVSVDRLERYLGGDDLDTSAIRRVSNFDKAVKFSEASFTWDPDLEATIQDVNLDIKPGQLVAVVGTVGSGKSSLVSAMLGEMENVHGHITIQGSTAYVPQQSWIQNGTIKDNILFGSEYNEKKYQQVLKACALLPDLEILPGGDMAEIGEKGINLSGGQKQRVSLARAAYQDADIYILDDPLSAVDAHVGKHIFNKVVGPNGLLAGKTRIFVTHGIHFLPQVDEIVVLGKGTILEKGSYRDLLDKKGVFARNWKTFMKHSGPEGEATVNNDSEAEDDDDGLIPTMEEIPEDAASLAMRRENSLRRTLSRSSRSSSRRGKSLKNSLKIKNVNVLKEKEKEVEGQKLIKKEFVETGKVKFSIYLKYLQAVGWWSILFIILFYGLNNVAFIGSNLWLSAWTSDSDNLNGTNNSSSHRDMRIGVFGALGLAQGICLLISTLWSIYACRNASKALHGQLLTNILRAPMRFFDTTPTGRIVNRFSGDISTVDDLLPQTLRSWMMCFFGIAGTLVMICMATPVFAIIIIPLSILYISVQVFYVATSRQLRRLDSVTKSPIYSHFSETVTGLPIIRAFEHQQRFLAWNEKQIDINQKCVFSWITSNRWLAIRLELVGNLVVFCSALLLVIYRKTLTGDVVGFVLSNALNITQTLNWLVRMTSEAETNIVAVERISEYINVENEAPWVTDKRPPADWPRHGEIQFNNYQVRYRPELDLVLKGITCNIKSGEKVGVVGRTGAGKSSLTNCLFRILESAGGQIIIDGIDVASIGLHDLRERLTIIPQDPILFSGSLRMNLDPFNKYSDEEVWRALELAHLRSFVSGLQLGLLSEVTEGGDNLSIGQRQLLCLGRAVLRKSKILVLDEATAAVDLETDSLIQTTIRKEFSQCTVITIAHRLHTIMDSDKIMVLDNGKIVEYGSPEELLSNRGSFYLMAKEAGIENVNHTEL
As for B1, the Km in data set [3] was 3.7 µM.
